The source of these data is patent US20230365592A1 (Agios Pharmaceuticals, Inc., priority 2022, published 2023).

In general, AC50 refers to the midpoint of the concentration-response curve, whichever way the signal moves.

In the first test the target is T1, human PAH with the R408W mutation (Homo sapiens, UniProt P00439, R408W).
T1 construct: expressed in transfected cells
T1 sequence (P00439 1-452 R408W): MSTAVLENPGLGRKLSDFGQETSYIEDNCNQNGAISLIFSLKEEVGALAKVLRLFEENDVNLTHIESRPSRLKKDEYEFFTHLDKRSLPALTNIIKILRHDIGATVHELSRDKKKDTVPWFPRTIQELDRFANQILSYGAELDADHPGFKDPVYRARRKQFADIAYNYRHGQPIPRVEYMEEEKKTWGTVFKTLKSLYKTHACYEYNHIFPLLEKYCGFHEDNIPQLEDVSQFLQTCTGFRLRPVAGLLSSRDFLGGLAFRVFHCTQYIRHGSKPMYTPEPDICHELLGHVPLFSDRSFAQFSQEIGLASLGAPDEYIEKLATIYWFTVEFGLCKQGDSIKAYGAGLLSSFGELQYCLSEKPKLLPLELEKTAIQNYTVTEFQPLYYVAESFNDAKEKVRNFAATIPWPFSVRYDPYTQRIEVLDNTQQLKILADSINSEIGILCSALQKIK
As to the kind of experiment: Cell Based Phenylalanine Flux Assay.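 Further: after compound treatment, cells received sepiapterin plus isotope-labelled Phenylalanine for 4 hours, then labelled Tyrosine in the medium was quantified, 10-point 2-fold dilution series run in duplicate.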 The conditions noted are these: A375 cells expressing R408W PAH; 24 hrs with compound, then 20 µM sepiapterin and 800 µM 13C9,15N-Phenylalanine for 4 hours; 13C-Tyrosine by LC-MS; average where tested multiple times; read-out: AC50.
As to `Cc1nnc(C(=O)N2CCc3[nH]cnc3C2c2cc3cccc(C(F)(F)F)n3n2)o1` (stereo not drawn), the AC50 was in the range of 1000 to 5000 nM.
Still for that read-out and setting: the result for `Fc1ncccc1-c1nnc(N2CCc3[nH]cnc3C2c2cc3ccccn3n2)o1` (stereo not drawn) reads 1000 to 5000 nM; that for `Cc1nnc(N2CCc3[nH]cnc3C2c2cc3cccc(C(F)(F)F)n3n2)o1` (stereo not drawn), 1000 to 5000 nM.
Still for that read-out and setting: the result for `Cc1cccn2nc(C3c4nc[nH]c4CCN3C(=O)c3oc(C(C)O)nc3C(F)F)cc12` (stereo not drawn) reads 1000 to 5000 nM; that for `c1ccn2nc(C3c4nc[nH]c4CCN3c3nnc(-c4ccncn4)o3)cc2c1` (stereo not drawn), 1000 to 5000 nM; that for `O=C(c1cnco1)N1CCc2[nH]cnc2C1c1cc2cc(F)ccn2n1` (stereo not drawn), 1000 to 5000 nM.
`COc1cccn2nc(C3c4nc[nH]c4CCN3C(=O)c3nnc(-c4cnccn4)o3)cc12` (stereo not drawn): the half-maximal activity concentration (AC50) lay in the range of 1000 to 5000 nM.

The same test, now with this note: A375 cells expressing human PAH R408W; 24 hrs compound incubation; 13C-Tyrosine by LC-MS; average where tested multiple times; read-out: AC50.
Regarding `COCCc1ccc2c(C(=O)N3CCc4[nH]cnc4[C@H]3c3cc4c(C)cccn4n3)cnn2c1` [Example 2478, (S)-(6-(2-methoxyethyl)pyrazolo[1,5-a]pyridin-3-yl)(4-(4-methylpyrazolo[1,5-a]pyridin-2-yl)-6,7-dihydro-1H-imidazo[4,5-c]pyridin-5(4H)-yl)methanone], the AC50 lay within 1000 to 5000 nM.

The same test, now with this note: A375 cells expressing human R408W PAH; 24 hrs compound incubation; 13C-Tyrosine by LC-MS; average where tested multiple times; read-out: AC50.
As to `CC(O)c1nc(Br)c(C(=O)N2CCc3[nH]cnc3[C@H]2c2cc3ccccn3n2)o1` (single isomer, unassigned) [Example 996], the half-maximal activity concentration (AC50) is below 500 nM.
The same measure, in the same setting: the result for `Cn1cc(-c2nnc(C(=O)N3CCc4[nH]cnc4[C@H]3c3cc4cccc(Cl)n4n3)o2)cn1` [Example 1066, (S)-(4-(7-chloropyrazolo[1,5-a]pyridin-2-yl)-6,7-dihydro-1H-imidazo[4,5-c]pyridin-5(4H)-yl)(5-(1-methyl-1H-pyrazol-4-yl)-1,3,4-oxadiazol-2-yl)methanone] reads below 500 nM; that for `Cc1ccc2c(C(=O)N3CCc4[nH]cnc4[C@@H]3c3cc4c(C)cccn4n3)cnn2c1` [Example 1669, (R)-(4-(4-methylpyrazolo[1,5-a]pyridin-2-yl)-6,7-dihydro-1H-imidazo[4,5-c]pyridin-5(4H)-yl)(6-methylpyrazolo[1,5-a]pyridin-3-yl)methanone], above 5000 nM; that for `Cc1ccc2cc([C@@H]3c4nc[nH]c4CCN3C(=O)c3ccnn3C(F)F)nn2c1` [Example 1112, (S)-(1-(difluoromethyl)-1H-pyrazol-5-yl)(4-(6-methylpyrazolo[1,5-a]pyridin-2-yl)-6,7-dihydro-1H-imidazo[4,5-c]pyridin-5(4H)-yl)methanone], below 500 nM.
On the same count and under the same terms, next, `O=C(c1nnc(C2CC2)o1)N1CCc2[nH]cnc2[C@H]1c1cc2c(C(F)(F)F)cccn2n1` [Example 942, (S)-(5-cyclopropyl-1,3,4-oxadiazol-2-yl)(4-(4-(trifluoromethyl)pyrazolo[1,5-a]pyridin-2-yl)-6,7-dihydro-1H-imidazo[4,5-c]pyridin-5(4H)-yl)methanone]: below 500 nM; `Cc1cccn2nc([C@@H]3c4nc[nH]c4CCN3C(=O)c3nnc(-c4ccccn4)o3)cc12` [Example 741, (S)-(4-(4-methylpyrazolo[1,5-a]pyridin-2-yl)-6,7-dihydro-1H-imidazo[4,5-c]pyridin-5(4H)-yl)(5-(pyridin-2-yl)-1,3,4-oxadiazol-2-yl)methanone]: below 500 nM; `O=C(c1nnc(-c2cnn(C(F)(F)F)c2)o1)N1CCc2[nH]cnc2[C@H]1c1cc2c(Cl)cccn2n1` [Example 1504, (S)-(4-(4-chloropyrazolo[1,5-a]pyridin-2-yl)-6,7-dihydro-1H-imidazo[4,5-c]pyridin-5(4H)-yl)(5-(1-(trifluoromethyl)-1H-pyrazol-4-yl)-1,3,4-oxadiazol-2-yl)methanone]: below 500 nM.
Same read-out and setting: the result for `FC(F)(F)c1cccn2nc([C@@H]3c4nc[nH]c4CCN3c3ncccn3)cc12` [Example 1692, (S)-5-(pyrimidin-2-yl)-4-(4-(trifluoromethyl)pyrazolo[1,5-a]pyridin-2-yl)-4,5,6,7-tetrahydro-1H-imidazo[4,5-c]pyridine] reads below 500 nM; that for `Cc1cccn2nc([C@@H]3c4nc[nH]c4CCN3C(=O)c3cnn4ccccc34)cc12` [Example 1286, (S)-(4-(4-methylpyrazolo[1,5-a]pyridin-2-yl)-6,7-dihydro-1H-imidazo[4,5-c]pyridin-5(4H)-yl)(pyrazolo[1,5-a]pyridin-3-yl)methanone], below 500 nM.
As to `COc1cccn2nc([C@H]3c4nc[nH]c4CCN3C(=O)c3cc(C(F)F)nn3C)cc12` [Example 887, (R)-(3-(difluoromethyl)-1-methyl-1H-pyrazol-5-yl)(4-(4-methoxypyrazolo[1,5-a]pyridin-2-yl)-6,7-dihydro-1H-imidazo[4,5-c]pyridin-5(4H)-yl)methanone], the concentration at half-maximal activity (AC50) is above 5000 nM.
The same measure, in the same setting: next, `Cc1nn(C)cc1-c1nnc(C(=O)N2CCc3[nH]cnc3[C@@H]2c2cc3cccc(F)n3n2)o1` [Example 1567, (R)-(5-(1,3-dimethyl-1H-pyrazol-4-yl)-1,3,4-oxadiazol-2-yl)(4-(7-fluoropyrazolo[1,5-a]pyridin-2-yl)-6,7-dihydro-1H-imidazo[4,5-c]pyridin-5(4H)-yl)methanone]: 1000 to 5000 nM; `O=C(c1cnn2cc(C3CC3)ccc12)N1CCc2[nH]cnc2[C@H]1c1cc2cccc(Cl)n2n1` [Example 1744, (S)-(4-(7-chloropyrazolo[1,5-a]pyridin-2-yl)-6,7-dihydro-1H-imidazo[4,5-c]pyridin-5(4H)-yl)(6-cyclopropylpyrazolo[1,5-a]pyridin-3-yl)methanone]: 1000 to 5000 nM; `O=C(c1nnc(-c2ccn(C(F)(F)F)n2)o1)N1CCc2[nH]cnc2[C@@H]1c1cc2c(C(F)F)cccn2n1` [Example 1481, (R)-(4-(4-(difluoromethyl)pyrazolo[1,5-a]pyridin-2-yl)-6,7-dihydro-1H-imidazo[4,5-c]pyridin-5(4H)-yl)(5-(1-(trifluoromethyl)-1H-pyrazol-3-yl)-1,3,4-oxadiazol-2-yl)methanone]: 1000 to 5000 nM.
Consider `N#Cc1ncoc1C(=O)N1CCc2[nH]cnc2[C@@H]1c1cc2ccc(Br)cn2n1` [Example 683, (R)-5-(4-(6-bromopyrazolo[1,5-a]pyridin-2-yl)-4,5,6,7-tetrahydro-1H-imidazo[4,5-c]pyridine-5-carbonyl)oxazole-4-carbonitrile], for which the concentration at half-maximal activity (AC50) was above 5000 nM.
Regarding `Cc1cccc(-c2nnc(C(=O)N3CCc4[nH]cnc4[C@H]3c3cc4cccc(F)n4n3)o2)n1` [Example 1496, (S)-(4-(7-fluoropyrazolo[1,5-a]pyridin-2-yl)-6,7-dihydro-1H-imidazo[4,5-c]pyridin-5(4H)-yl)(5-(6-methylpyridin-2-yl)-1,3,4-oxadiazol-2-yl)methanone], the concentration at half-maximal activity (AC50) is below 500 nM.
As to `Cc1ccc2cc([C@H]3c4nc[nH]c4CCN3C(=O)c3nnc(C(C)(C)C)o3)nn2c1` [Example 1111, (R)-(5-(tert-butyl)-1,3,4-oxadiazol-2-yl)(4-(6-methylpyrazolo[1,5-a]pyridin-2-yl)-6,7-dihydro-1H-imidazo[4,5-c]pyridin-5(4H)-yl)methanone], the AC50 was above 5000 nM.
On the same count and under the same terms, next, `O=C(c1nnc(-c2cnccn2)o1)N1CCc2[nH]cnc2[C@@H]1c1cc2ccccn2n1` [Example 1363, (R)-(5-(pyrazin-2-yl)-1,3,4-oxadiazol-2-yl)(4-(pyrazolo[1,5-a]pyridin-2-yl)-6,7-dihydro-1H-imidazo[4,5-c]pyridin-5(4H)-yl)methanone]: above 5000 nM; `Cc1cccc(-c2nnc(C(=O)N3CCc4[nH]cnc4[C@@H]3c3cc4cccc(Cl)n4n3)o2)n1` [Example 1397, (R)-(4-(7-chloropyrazolo[1,5-a]pyridin-2-yl)-6,7-dihydro-1H-imidazo[4,5-c]pyridin-5(4H)-yl)(5-(6-methylpyridin-2-yl)-1,3,4-oxadiazol-2-yl)methanone]: 1000 to 5000 nM; `C[C@H](O)c1nc(C(F)F)c(C(=O)N2CCc3[nH]cnc3[C@H]2c2cc3ccccn3n2)o1` [Example 692, (4-(difluoromethyl)-2-((S)-1-hydroxyethyl)oxazol-5-yl)((S)-4-(pyrazolo[1,5-a]pyridin-2-yl)-6,7-dihydro-1H-imidazo[4,5-c]pyridin-5(4H)-yl)methanone]: below 500 nM.
For the molecule `Cc1cc(-c2nnc(C(=O)N3CCc4[nH]cnc4[C@H]3c3cc4c(C(F)F)cccn4n3)o2)nn1C` [Example 1531, (S)-(4-(4-(difluoromethyl)pyrazolo[1,5-a]pyridin-2-yl)-6,7-dihydro-1H-imidazo[4,5-c]pyridin-5(4H)-yl)(5-(1,5-dimethyl-1H-pyrazol-3-yl)-1,3,4-oxadiazol-2-yl)methanone], the half-maximal activity concentration (AC50) is below 500 nM.
On the same count and under the same terms, next, `Cc1cccn2nc([C@H]3c4nc[nH]c4CCN3C(=O)c3oc(-c4cnn(C)c4)nc3C(F)F)cc12` [Example 1009, (R)-(4-(difluoromethyl)-2-(1-methyl-1H-pyrazol-4-yl)oxazol-5-yl)(4-(4-methylpyrazolo[1,5-a]pyridin-2-yl)-6,7-dihydro-1H-imidazo[4,5-c]pyridin-5(4H)-yl)methanone]: 500 to 1000 nM; `Cc1cccc2cc([C@H]3c4nc[nH]c4CCN3C(=O)c3nnc(-c4ccn(C)n4)o3)nn12` [Example 803, (R)-(5-(1-methyl-1H-pyrazol-3-yl)-1,3,4-oxadiazol-2-yl)(4-(7-methylpyrazolo[1,5-a]pyridin-2-yl)-6,7-dihydro-1H-imidazo[4,5-c]pyridin-5(4H)-yl)methanone]: above 5000 nM.
